Target: T1, MMP-13 (Homo sapiens, UniProt P45452)
T1 construct: purchased Calbiochem (EMD/MERCK Biosciences)
Experiment: Enzyme inhibiting activity of MMPs, fluorogenic peptide substrate
Type: biochemical
Conditions: compounds not described in the Tables; read-out: inhibiting activity for MMP-13
Procedure: Various human MMPs (MMP-2, MMP-9 and MMP-13) were purchased from Calbiochem (EMD/MERCK Biosciences).
Since the purchased MMP-13 was Proenzyme, the activated one was used, which was incubated at 37° C. for 2 hours after the successive addition of an assay buffer (containing 50 mM Tris-HCl (pH7.6), 0.3 M NaCl, 10 mM CaCl2, 0.005% Brij35) and APMA (final concentration 1 mM) to the enzyme solution.
The enzyme activity of MMPs was measured according to the method described in C. Graham Knight, Frances Willenbrock and Gillian Murphy: A novel coumarin-labelled peptide for sensitive continuous assays of the matrix metalloproteinases: FEBS LETT., 296, (1992), 263-266. As a substrate, MOCAc-Pro-Leu-Gly-Leu-A2Pr(DNP)- Ala-Arg-NH2 (Peptide Institute, Inc. Osaka, Japan) was used, and the following four assays are performed per compound (inhibitor) for measuring the inhibiting activity.
(A) Substrate (synthetic substrate), enzyme (MMPs), inhibitor
(B) Substrate (synthetic substrate), inhibitor
(C) Substrate (synthetic substrate), enzyme (MMPs)
(D) Substrate (synthetic substrate)
In each assay, the fluorescent intensity was measured, and inhibition (%) was calculated by the following equation.
Inhibition (%)=[I−(A−B)/(C−D)]×100
IC50 indicates a concentration at which inhibition (%) is 50%.

Row | SMILES | IC50
1 | CSc1cccc2ccc(C#Cc3ccc(N4CCN(S(=O)(=O)N[C@H](C)C(=O)O)CC4)cc3)cc12 [Compound I-82, (R)-2-{4-[4-(8-methylsulfanylnaphthalen-2-ylethynyl)-phenyl]-piperazine-1-sulfonylamino}-proponic acid] | 0.01 to 0.1 µM
2 | CC(C)[C@H](NS(=O)(=O)N1CCN(c2ccc(C#Cc3ccc4cccc(C(N)=O)c4c3)cc2)CC1)C(=O)O [Compound I-58, (S)-2-{4-[4-(8-carbamoylnaphthalen-2-ylethynyl)-phenyl]-piperazine-1-sulfonylamino}-3-methylbutanoic acid] | 0.01 to 0.1 µM
3 | CO/N=C(\C)c1cccc2ccc(C#Cc3ccc(N4CCN(S(=O)(=O)N[C@H](C)C(=O)O)CC4)cc3)cc12 [Compound I-95, (R)-2-{4-[4-(8-{1-[(E)-methoxyimino]-ethyl}-naphthalen-2-ylethynyl)-phenyl]-piperazine-1-sulfonylamino}-proponic acid] | 0.01 to 0.1 µM
4 | C[C@@H](NS(=O)(=O)N1CCN(c2ccc(C#Cc3ccc4cccc(S(C)(=O)=O)c4c3)cc2)CC1)C(=O)O [Compound I-83, (R)-2-{4-[4-(8-methanesulfonylnaphthalen-2-ylethynyl)-phenyl]-piperazine-1-sulfonylamino}-proponic acid] | 0.01 to 0.1 µM
5 | CCC[C@H](NS(=O)(=O)N1CCN(c2ccc(C#Cc3cccc(-c4ncc(C)o4)c3)cc2)CC1)C(=O)O [Compound I-26, (S)-2-(4-{4-[3-(5-methyloxazol-2-yl)-phenylethynyl]-phenyl}-piperazine-1-sulfonylamino)-pentanoic acid] | 0.01 to 0.1 µM
6 | C[C@@H](NS(=O)(=O)N1CCN(c2ccc(C#Cc3ccc4cccc(C(=O)NC5CC5)c4c3)cc2)CC1)C(=O)O [Compound I-107, (R)-2-{4-[4-(8-cyclopropylcarbamoylnaphthalen-2-ylethynyl)-phenyl]-piperazine-1-sulfonylamino}-proponic acid] | < 0.01 µM
7 | C[C@@H](NS(=O)(=O)N1CCN(c2ccc(C#Cc3cccc(C(=O)NCc4ccccc4)n3)cc2)CC1)C(=O)O [Compound I-18, (R)-2-{4-[4-(6-benzylcarbamoylpyridine 2-ylethynyl)-phenyl]-piperazine-1-sulfonylamino}-proponic acid] | < 0.01 µM
8 | CC(C)NS(=O)(=O)c1cccc2ccc(C#Cc3ccc(N4CCN(S(=O)(=O)N[C@H](C)C(=O)O)CC4)cc3)cc12 [Compound I-80, (R)-2-{4-[4-(8-isopropylsulfamoylnaphthalen-2-ylethynyl)-phenyl]-piperazine-1-sulfonylamino}-proponic acid] | 0.01 to 0.1 µM
